Reference: ChEMBL document CHEMBL3045412, “Antifungal activity and fungal metabolism of steroidal glycosides of Easter lily (Lilium longiflorum Thunb.) by the plant pathogenic fungus, Botrytis cinerea” (2011)
Calls of active or inactive are those of the source. The calls are words filed in the database; no cut-off is given here.

How the values were obtained:
[1] = system: Botrytis cinerea; test: Antifungal activity against Botryotinia fuckeliana assessed as radial mycelia growth inhibition at 25 degC at 100 umol relative to control (crop protection Lilium longiflorum Thunb.); assay type: functional
[2] = system: Botrytis cinerea; test: Antifungal activity against Botryotinia fuckeliana assessed as radial mycelia growth inhibition at 25 degC at 1 to 100 umol relative to control (crop protection Lilium longiflorum Thunb.); assay type: functional, organism-based

Compound | growth inhibition (GI) [1] [%] | growth inhibition (GI) [2]
CC(=O)OC[C@H]1O[C@@H](O[C@H]2[C@H](O)[C@@H](O[C@@H]3O[C@@H](C)[C@H](O)[C@@H](O)[C@H]3O)[C@H](O[C@H]3CC[C@@]4(C)C(=CC[C@H]5[C@@H]6C[C@@H]7O[C@]8(CC[C@@H](C)CN8)[C@@H](C)[C@@H]7[C@@]6(C)CC[C@@H]54)C3)O[C@@H]2CO)[C@H](O)[C@@H](O)[C@@H]1O | 49 | –
C[C@H](CC[C@@]1(O)O[C@H]2C[C@H]3[C@@H]4CC=C5C[C@@H](O[C@@H]6O[C@H](CO)[C@@H](O[C@@H]7O[C@H](CO)[C@@H](O)[C@H](O)[C@H]7O)[C@H](O)[C@H]6O[C@@H]6O[C@@H](C)[C@H](O)[C@@H](O)[C@H]6O)CC[C@]5(C)[C@H]4CC[C@]3(C)[C@H]2[C@@H]1C)CO[C@@H]1O[C@H](CO)[C@@H](O)[C@H](O)[C@H]1O | 25 | –
C[C@H](CC[C@@]1(O)O[C@H]2C[C@H]3[C@@H]4CC=C5C[C@@H](O[C@@H]6O[C@H](CO)[C@@H](O)[C@H](O[C@@H]7OC[C@H](O)[C@@H](O)[C@@H]7O)[C@H]6O[C@@H]6O[C@@H](C)[C@H](O)[C@@H](O)[C@H]6O)CC[C@]5(C)[C@H]4CC[C@]3(C)[C@H]2[C@@H]1C)CO[C@@H]1O[C@H](CO)[C@@H](O)[C@H](O)[C@H]1O | 25 | –
C[C@H](CC[C@@]1(O)O[C@H]2C[C@H]3[C@@H]4CC=C5C[C@@H](O[C@@H]6O[C@H](CO)[C@@H](O)[C@H](O[C@@H]7OC[C@H](O)[C@H](O)[C@H]7O)[C@H]6O[C@@H]6O[C@@H](C)[C@H](O)[C@@H](O)[C@H]6O)CC[C@]5(C)[C@H]4CC[C@]3(C)[C@H]2[C@@H]1C)CO[C@@H]1O[C@H](CO)[C@@H](O)[C@H](O)[C@H]1O | 25 | –
C[C@@H]1CC[C@@]2(NC1)O[C@H]1C[C@H]3[C@@H]4CC=C5C[C@@H](O[C@@H]6O[C@H](CO)[C@@H](O[C@@H]7O[C@H](CO)[C@@H](O)[C@H](O)[C@H]7O)[C@H](O)[C@H]6O[C@@H]6O[C@@H](C)[C@H](O)[C@@H](O)[C@H]6O)CC[C@]5(C)[C@H]4CC[C@]3(C)[C@H]1[C@@H]2C | – | Active
